According to patent US8680153B2, “Method for correcting a lipid imbalance in a subject” (The Royal Institution for the Advancement of …, priority 2005, dated 2014):

How the values were obtained:
Cftr-KO mice = test: μCT of trabecular bone (femur), biweekly treatment for 4 weeks; format: in vivo
Method: Fenretinide Diet Supplementation. Examples 2 to 6: fenretinide (Sigma-Aldrich, Oakville, ON) powder was resuspended in 95% ethanol and subsequently incorporated in the Peptamen liquid diet. It was protected from light and kept at 4° C. before being given to the mice (5 mg/kg per day per mouse). Mock-treated diets were prepared similarly by adding ethanol to the Peptamen diet but omitting the fenretinide supplementation. The diet was given every morning for 28 consecutive days with specific monitoring of the quantity consumed by the mice in each cage. Examples 7 to 12: fenretinide powder was kindly provided by Dr. Robert Smith (NIH; Bethesda, Md., USA). Fenretinide was resuspended in 95% ethanol to make a 2 μg/μL concentration. Approximately 40 μL of this preparation was incorporated into the Peptamen liquid diet (5 mg/kg per day per mouse). The prepared food containing fenretinide was then stored in the dark at 4° C. for no more than 3 hours prior to being administered to the mice. To ensure that the entire drug dose was consumed, the mice were given 10 mL of fenretinide-treated Peptamen, which represents ⅔ of the daily mouse food consumption, in the late afternoon. The remaining 5 mL of Peptamen (without fenretinide) was given the following morning. Mice were treated twice a week for 4 weeks. During the treatment period each mouse was kept in a separate cage (including WT mice) and was monitored to ensure that the entire amount of Peptamen containing the fenretinide or with out was consumed. The diet for the mock-treated control group was prepared and administered similarly to that described above, by adding the same volume of ethanol to the Peptamen diet but omitting the fenretinide supplementation.
μ-CT. Mice were sacrificed by CO2 and exsanguinated by cardiac puncture. Femurs, tibiae and vertebrae were extracted, stripped of soft tissue and fixed in 4% paraformaldehyde overnight. Micro Computed Tomography (μCT) was performed on the left femur after overnight fixation. The distal metaphysis was scanned with a Skyscan 1072 μCT instrument (Skyscan, Antwerp, Belgium). Image acquisition was performed at 100 kV and 98 μA, with a 0.9° rotation between frames. The two-dimensional images were used to generate three-dimensional reconstructions to obtain quantitative data using the 3D Creator software supplied with the instrument (ANT 3D Creator software, Skyscan, Antwerp, Belgium).
Histological analysis. Mice were given an intra-peritoneal injection of 30 mg/kg calcein at 7 days and 2 days prior to sacrifice to label actively mineralizing surfaces. After overnight fixation in 4% paraformaldehyde and rinsing in phosphate buffered saline (PBS), right femurs and tibiae were embedded in polymethylmethacrylate (MMA) or a mixture of 50% MMA and 50% glycolmethacrylate (GMA). Serial 4- to 6-μm sections were cut on a modified Leica RM 2155 rotary microtome (Leica Microsystems, Richmond Hill, Ontario, Canada). MMA-embedded tissues were stained with von Kossa and toluidine blue, while 4 μm MMA-GMA sections were stained with tartrate-resistant acidic phosphatase (TRAP) and alkaline phosphate (ALP) activity. Images were captured using a Leica DMR microscope (Leica Microsystems) equipped with a Retiga 1300 camera (Qimaging, Burnaby, British Columbia, Canada). The left femur and tibia and the lumbar vertebrae were decalcified with 4% EDTA for paraffin embedding after 14 days. Serial 5 μm sections were cut and stained with hematoxylin and esosin (H&E). Osteoblasts were defined as a single-nucleated, rod shaped cells and were identified along the surface of the trabecular lamellae. Osteoclasts were defined as multi-nucleated cells that are much larger then osteoblasts and display typical macrophage morphology.

P. aeruginosa = test: Bacterial load (CFU) in the lungs of infected mice; format: in vivo
Method: P. aeruginosa Inoculum Preparation. In order to establish a model of prolonged lung infection, bacteria-impregnated agar beads were freshly prepared the day before each experiment according to established methods (Guilbault, et al. (2005) Laboratory Animals 39:336-352), and stored at 4° C. overnight. Briefly, the bacteria (P. aeruginosa strain 508) from an overnight culture were grown for approximately 3 hours in a shaking incubator at 37° C., until it reached a mid-log phase. The log-phase bacteria were concentrated and resuspended in 5 mL of Dulbecco's phosphate-buffered saline (PBS; INVITROGEN™, Mississauga, ON). A 5 mL aliquot of the concentrated bacterial broth was added to 52° C. 1.5% trypticase soy agar (DIFCO®, Detroit, Mich.) (agarose beads free of bacteria were prepared using PBS instead of a bacterial suspension). This mixture was quickly added to 52° C. heavy mineral oil and stirred rapidly, first at room temperature for 6 minutes, followed by ice cooling with continuous stirring for 10 minutes. The oil-agar mixture was centrifuged to sediment the beads. The beads were washed with PBS and their size was verified microscopically and only those preparations containing beads predominantly 100-250 micrometers in diameter were used as inoculum. Inoculum was prepared by diluting the beads suspension to 1×10^6 CFUs per 50 μl (injection volume).
Mouse Lung Infection. Mice were anaesthetized with a combination of ketamine (7.5 mg/mL) and xylazine (0.5 mg/mL) administered intraperitoneally at a dose of 20 mL/kg of body weight. Once the mouse was successfully anaesthetized, the animal was installed under binoculars (Microscope M650, Wild Leitz, Willowdale, ON) in the vertical position and held on a restraining board by holding the animal by its upper incisor teeth (Guilbault, et al. (2005) supra). […] Mice were monitored 3 times daily; the maximum weight loss allowed was 15%. […]
Lung Homogenates. […] The number of CFU per lung was counted after overnight incubation at 37° C. […]

[1] = Cftr-KO mice, left femur, 8 doses over 4 weeks

For `CC1=C(/C=C/C(C)=C/C=C/C(C)=C/C(=O)Nc2ccc(O)cc2)C(C)(C)CCC1` [fenretinide, all-trans-N-(4-hydroxyphenyl) retinamide], which “Signs of osteoporosis in the trabecular bone (μCT)” value (Cftr-KO mice; Cftr-KO mice, biweekly treatment over four weeks (total 8 doses)) is on record?
Its value is “completely eliminate any signs of osteoporosis”.

What about the “Bone number (BN), increase vs Cftr-KO not treated” value (Cftr-KO mice; [1]) of the same molecule?
The value was 2.4 fold.

What about the “Bone volume (BV), increase vs Cftr-KO not treated” value (Cftr-KO mice; [1]) of the same molecule?
The value was 3.1 fold.

What about the “Bone volume/tissue volume (BV/TV), increase vs untreated Cftr-KO” value (Cftr-KO mice; [1]) of the same molecule?
The value was 2.7 fold.

And the “Structural model index (SMI), treated WT vs treated Cftr-KO” value (Cftr-KO mice; left femur, fenretinide-treated mice)?
The value was “no significant (p=0.320) difference”.

And the “Trabecular separation, treated WT vs treated Cftr-KO” value (Cftr-KO mice; left femur, fenretinide-treated mice, p=0.548)?
The value was “no longer a significant difference”.

What about the “Decrease of median number of bacteria vs untreated Cftr-KO” value (P. aeruginosa; Cftr-KO mice, day 3 post-infection) of the same molecule?
The value was “about 10 fold”.

And the “Median bacterial load in the lungs” value (P. aeruginosa; fenretinide-treated Cftr-KO mice, day 3 post-infection, p=0.004 vs untreated)?
The value was 3.8×10^4 CFU/lung.

What about the “Effect on median number of bacteria in the lungs vs untreated infected controls” value (P. aeruginosa; wild-type mice, p=0.240) of the same molecule?
The value was “no significant effect”.
